Measurements reported in ChEMBL document CHEMBL1129886, “Novel indole containing thiazolidinedione derivatives as potent euglycemic and hypolipidaemic agents” (1997).

Key:
Type in all cases: functional
Mus musculus [1] = assay: Percentage reduction in random blood sugar in mice measured on 0th and 6th day at a dose of 200 mg/kg peroral administration; conditions: route oral
Mus musculus [2] = assay: Percentage reduction in random blood sugar in mice measured on 0th and 3rd day at a dose of 200 mg/kg peroral administration; conditions: route oral
Mus musculus [3] = assay: Percentage reduction in random blood sugar in mice measured on 0th and 9th day at a dose of 200 mg/kg peroral administration; conditions: route oral
Mus musculus [4] = assay: Percentage reduction in triglyceride measured on 0 and 9th day at a dose of 200 mg/kg
Mus musculus [5] = assay: Percentage reduction in triglyceride measured on 0 and 9th day at a dose of 100 mg/kg
Mus musculus [6] = assay: Percentage reduction in AUC determined Glucose tolerance test in 18 h fasted animals after feeding 3 g/kg of glucose at a dose of 200 mg/kg peroral administration; conditions: route oral

Structure (SMILES)	Reduction in RBS (Mus musculus [1])	Reduction in RBS (Mus musculus [2])	Reduction in RBS (Mus musculus [3])	Reduction in TG (Mus musculus [4])	Reduction in TG (Mus musculus [5])	Reduction in AUC (Mus musculus [6])
O=C1NC(=O)/C(=C/c2ccc(OCCn3c(C(=O)O)cc4ccccc43)cc2)S1	39%	50%	12%	0%	–	–
O=C1NC(=O)C(Cc2ccc(OCCn3c4ccccc4c4ccccc43)cc2)S1 (stereo not given)	0%	0%	0%	–	21%	–
O=C1NC(=O)C(Cc2ccc(OCCn3ccc4ccccc43)cc2)S1 (stereo not given)	48%	64%	74%	77%	–	55%
NC(Cc1cn(CCOc2ccc(/C=C3\SC(=O)NC3=O)cc2)c2ccccc12)C(=O)O (stereo not given)	29%	0%	0%	–	64%	–
O=C1NC(=O)/C(=C/c2ccc(OCCn3ccc4ccccc43)cc2)S1	40%	27%	33%	37%	–	15%
Cc1c(C)c2c(c(C)c1O)CCC(C)(COc1ccc(CC3SC(=O)NC3=O)cc1)O2 (stereo not given) [TROGLITAZONE]	16%	14%	24%	50%	–	20%
O=C1NC(=O)/C(=C/c2ccc(OCCn3cnc4ccccc43)cc2)S1	31%	22%	33%	76%	–	–
O=C1NC(=O)/C(=C/c2ccc(OCCn3c4ccccc4c4ccccc43)cc2)S1	0%	0%	0%	–	44%	–
